These compounds were tested against Adenosine receptor A1 (Bos taurus) (UniProt P28190) (assay: Displacement of [3H]DPCPX from bovine adenosine A1 receptor in bovine cortical membranes).
Adenosine receptor A1 (Bos taurus), sequence (P28190 whole entry, looked up): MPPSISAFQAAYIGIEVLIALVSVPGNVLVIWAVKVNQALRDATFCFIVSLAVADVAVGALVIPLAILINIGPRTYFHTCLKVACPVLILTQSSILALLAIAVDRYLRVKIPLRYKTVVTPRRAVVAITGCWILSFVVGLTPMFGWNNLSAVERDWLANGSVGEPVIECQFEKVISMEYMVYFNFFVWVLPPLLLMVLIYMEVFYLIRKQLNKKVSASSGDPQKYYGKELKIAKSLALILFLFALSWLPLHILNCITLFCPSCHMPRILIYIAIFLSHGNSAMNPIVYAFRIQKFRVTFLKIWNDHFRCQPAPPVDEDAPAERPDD

| SMILES | Ki |
| --- | --- |
| CCOC(=O)c1cnc2c(cnn2CC(Cl)c2ccccc2)c1NCCc1ccccc1 (stereo not drawn) | 50.1 nM |
| COc1ccc2c(O)cc(-c3ccccc3)nc2n1 | 1.58 nM |
| O=c1n(-c2ccccc2)nc2c(NC3CCCCC3)nc3ccccc3n12 | 1.58 nM |
| CSc1nc(NC2CCCCC2)c2cnn(CC(Cl)c3ccccc3)c2n1 (stereo not drawn) | 6310 nM |
| O=c1n(-c2cccc(F)c2)nc2c(NC3CCCC3)nc3ccccc3n12 | 1 nM |
| Oc1ccc(-c2nnc3nc4ccccc4n3c2O)cc1O | 501 nM |
| Oc1cc(-c2ccccc2)nc2nc(NC3CCCCC3)ccc12 | 79.4 nM |
| CSc1nc(NCCc2ccccc2)c2cnn(CC(Cl)c3ccccc3)c2n1 (stereo not drawn) | 10000 nM |
| CCn1c(-c2ccccc2)cc(=O)c2ccc(C)nc21 | 501 nM |
| O=c1c(-c2ccco2)nnc2n(-c3ccccc3)c3ccccc3n12 | 316 nM |
| Cc1ccc2c(O)cc(-c3ccc(F)cc3)nc2n1 | 5.01 nM |
| CCOc1ccc2c(O)cc(-c3ccccc3)nc2n1 | 5.01 nM |
| O=C(Nc1ccccc1)Nc1nc2ccccc2n2c(=O)n(-c3ccc(Cl)cc3)nc12 | 50.1 nM |
| O=c1c(Cc2ccccc2)nnc2n(Cc3ccccc3)c3ccccc3n12 | 251 nM |
| CCOC(=O)c1cnc2c(cnn2CC(Cl)c2ccccc2)c1N1CCOCC1 (stereo not drawn) | 501 nM |
| O=c1c(-c2ccccc2)nnc2n(-c3ccccc3)c3ccccc3n12 | 20 nM |
| COc1ccc(-n2nc3c(N)nc4ccccc4n3c2=O)cc1 | 316 nM |
| Oc1cc(-c2ccccc2)nc2ncccc12 | 15.8 nM |
| CCOC(=O)c1cnc2c(cnn2CC(Cl)c2ccccc2)c1NCc1ccccc1 (stereo not drawn) | 126 nM |
| CCOc1cc(-c2ccccc2)nc2nc(Br)ccc12 | 50.1 nM |
| Cn1c2ccccc2n2c(=O)c(-c3cccs3)nnc12 | 79.4 nM |
| Cc1cc(O)c2ccc(N)nc2n1 | 10000 nM |
| Oc1cc(-c2ccccc2)nc2nc(Br)ccc12 | 0.794 nM |
| Oc1ccc(-c2nnc3nc4ccccc4n3c2O)cc1 | 251 nM |
| COc1cc(-c2ccccc2)nc2c1ccc(=O)n2C | 1260 nM |
| CCOC(=O)c1cnc2c(cnn2CC(Cl)c2ccccc2)c1N1CCCC1 (stereo not drawn) | 100 nM |
| COc1cc(-c2ccccc2)nc2nc(C)ccc12 | 6310 nM |
| Cc1cccc(-n2nc3c(NC4CCCCC4)nc4ccccc4n3c2=O)c1 | 3.98 nM |

Continued by falling Ki, values first:

| Ki | SMILES |
| --- | --- |
| 10000 nM | Cn1c2ccccc2n2c(=O)c(-c3ccc(Cl)cc3)nnc12 |
| 10000 nM | Cc1nnc2n(C)c3ccccc3n2c1=O |
| 3980 nM | Cc1nnc2nc3ccccc3n2c1O |
| 2000 nM | COc1ccc(-c2nnc3n(C)c4ccccc4n3c2=O)cc1 |
| 1000 nM | O=c1c(-c2ccco2)nnc2n(Cc3ccccc3)c3ccccc3n12 |
| 794 nM | Cn1c2ccccc2n2c(=O)c(-c3ccco3)nnc12 |
| 316 nM | CCOc1ccc2c(OCC)cc(-c3ccccc3)nc2n1 |
| 251 nM | Oc1c(-c2ccco2)nnc2nc3ccccc3n12 |
| 200 nM | CCCc1cc(O)c2ccc(N)nc2n1 |
| 126 nM | CCOC(=O)c1cnc2c(cnn2CC(Cl)c2ccccc2)c1NC1CC1 (stereo not drawn) |
| 100 nM | Cc1ccc2c(NN)cc(-c3ccccc3)nc2n1 |
| 100 nM | CCCNc1c(C(=O)OCC)cnc2c1cnn2CC(Cl)c1ccccc1 (stereo not drawn) |
| 79.4 nM | Oc1c(-c2ccccc2)nnc2nc3ccccc3n12 |
| 63.1 nM | Cn1c2ccccc2n2c(=O)c(-c3ccccc3)nnc12 |
| 50.1 nM | O=c1[nH]nc2c(NCc3ccccc3)nc3ccccc3n12 |
| 50.1 nM | CCCc1cc(O)c2ccc(C)nc2n1 |
| 31.6 nM | Cc1ccc2c(NC3CCCCC3)cc(-c3ccccc3)nc2n1 |
| 20 nM | Cc1cccc(-n2nc3c(N)nc4ccccc4n3c2=O)c1 |
| 15.8 nM | Cc1ccc2c(N)cc(-c3ccccc3)nc2n1 |
| 10 nM | Nc1nc2ccccc2n2c(=O)n(-c3ccccc3)nc12 |
| 6.31 nM | Cc1ccc2c(O)cc(-c3ccc(N)cc3)nc2n1 |
| 5.01 nM | Cc1ccc2c(O)cc(-c3ccccc3)nc2n1 |
| 5.01 nM | O=c1[nH]nc2c(NCCc3ccccc3)nc3ccccc3n12 |
| 5.01 nM | O=c1n(-c2cccc(F)c2)nc2c(NC3CCCCC3)nc3ccccc3n12 |
| 0.398 nM | O=c1n(-c2ccccc2)nc2c(NC3CCCC3)nc3ccccc3n12 |

Source: ChEMBL document CHEMBL1139469, “Synthesis and 3D QSAR of new pyrazolo[3,4-b]pyridines: potent and selective inhibitors of A1 adenosine receptors” (J Med Chem, 2005)
